Experimental data from patent US20050158775A1, “Novel plamid DNA comprising reoprter gene DNA and use of the same” (priority 1997, published 2005).

Assays:
[1] = biological target: T1, Gal4-human PPAR α chimeric receptor protein (Homo sapiens, UniProt Q07869); type: cell-based
T1 construct: the 167th serine (Ser) to the 468th tyrosine (Tyr) of the human PPAR α receptor; expressed in transfected cells
T1 sequence (Q07869 167-468): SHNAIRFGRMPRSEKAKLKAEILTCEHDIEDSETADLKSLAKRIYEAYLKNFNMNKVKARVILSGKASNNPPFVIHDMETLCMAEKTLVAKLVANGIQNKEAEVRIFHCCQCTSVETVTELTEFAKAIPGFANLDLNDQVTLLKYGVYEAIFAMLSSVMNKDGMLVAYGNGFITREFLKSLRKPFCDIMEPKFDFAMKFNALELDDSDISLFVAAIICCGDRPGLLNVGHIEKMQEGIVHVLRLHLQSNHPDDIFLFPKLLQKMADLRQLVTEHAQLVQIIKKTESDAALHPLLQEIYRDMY

[2] = biological target: T2, Gal4-human PPAR δ chimeric receptor protein (Homo sapiens, UniProt Q03181); type: cell-based
T2 construct: the 139th serine (Ser) to the 441st tyrosine (Tyr) of the human PPAR δ receptor; expressed in transfected cells
T2 sequence (Q03181 139-441): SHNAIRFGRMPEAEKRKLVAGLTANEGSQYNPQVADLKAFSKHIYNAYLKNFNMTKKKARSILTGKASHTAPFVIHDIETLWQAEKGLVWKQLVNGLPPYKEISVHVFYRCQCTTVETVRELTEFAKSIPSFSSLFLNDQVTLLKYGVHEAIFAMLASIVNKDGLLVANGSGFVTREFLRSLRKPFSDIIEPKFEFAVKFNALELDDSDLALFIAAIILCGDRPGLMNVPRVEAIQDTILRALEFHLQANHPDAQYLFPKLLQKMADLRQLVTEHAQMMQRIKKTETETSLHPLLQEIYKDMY

[3] = biological target: T3, Gal4-human PPAR γ chimeric receptor protein (Homo sapiens, UniProt P37231)
T3 sequence (P37231 176-477 isoform P37231-2): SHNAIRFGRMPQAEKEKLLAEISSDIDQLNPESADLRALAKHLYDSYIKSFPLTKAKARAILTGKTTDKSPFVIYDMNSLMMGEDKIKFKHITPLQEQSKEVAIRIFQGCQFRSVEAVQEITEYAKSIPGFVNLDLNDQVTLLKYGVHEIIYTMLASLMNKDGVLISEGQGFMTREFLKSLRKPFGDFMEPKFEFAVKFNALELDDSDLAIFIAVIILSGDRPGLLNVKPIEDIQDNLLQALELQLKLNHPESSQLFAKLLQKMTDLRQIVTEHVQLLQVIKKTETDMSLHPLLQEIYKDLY

SMILES: CCCCCC#CCC#CCC#CCC#CCCCC(=O)O [ETYA]
- cell death of PPAR α ligand-responsive cells [1]: cause dose-dependent cell death
- cell death of PPAR δ ligand-responsive cells [2]: do not cause cell death

SMILES: Cc1cccc(Nc2cc(Cl)nc(SCC(=O)O)n2)c1C [Wy-14643]
- cell death of PPAR α ligand-responsive cells [1]: cause dose-dependent cell death
- cell death of PPAR γ ligand-responsive cells [3]: do not cause cell death
